Assay results as given in paper PMC3592886, “Utilization of Quantitative In Vivo Pharmacology Approaches to Assess Combination Effects of Everolimus and Irinotecan in Mouse Xenograft Models of Colorectal Cancer” (PLoS ONE, 2013).
Where two headings read alike, the source gives them in different places. Marks after values point to notes of the source that are not given here. Blank lines part the entries; values can stand above or below the molecule they belong to.

Assays:
[1] = test system: HT29 cells; experiment: Sulforhodamine B (SRB) anti-proliferation assay, HT29; assay type: cell-based
Procedure: (§1) Cytoxic effects were determined using the sulforhodamine B (SRB) assay. Briefly, 5000 viable cells were plated into 96-well plates and incubated overnight prior to exposure with different concentrations of drugs. Cells were exposed to increasing concentrations of everolimus (0–200 nM), SN38 (0–8 nM), and combinations of the two. Following a 72 hour incubation, media was removed and cells were fixed with cold 10% trichloroacetic acid for 30 minutes at 4° C. Cells were washed with water and stained with 0.4% SRB for 30 minutes at room temperature. Cells were washed again with 1% acetic acid and stain was solubilized with 10 mM tris at room temperature and read at an OD of 565 nm. […] The resulting Combination Index (CI) was used as a quantitative measure of the degree of interaction between different drugs. A CI value equal to 1 denotes additivity; CI greater than 1, antagonism; CI less than 1, synergism.

[2] = test system: HCT116 cells; experiment: Sulforhodamine B (SRB) anti-proliferation assay, HCT116; assay type: cell-based
Procedure: as §1

[3] = test system: HCT8 cells; experiment: Sulforhodamine B (SRB) anti-proliferation assay, HCT8; assay type: cell-based; settings: RAD (20 nM), SN38 (4 nM) or the combination of the two, Figure 2
Procedure: as §1

[4] = test system: p21; experiment: Western blot, p21 in CRC cell lines; assay type: cell-based; settings: SN38 4 nM, 24 hours, HCT116 and HCT8 cells
Procedure: (§2) Cells were seeded into 6-well plates 24 hours prior to treatment with each drug alone or in combination for 24 hours. Cells were scraped into RIPA buffer containing protease inhibitors, EDTA, NaF, and sodium orthovanadate. Total protein was determined using the Pierce 660 nm Protein Assay (Pierce, Rockford, IL). Thirty micrograms of total protein was loaded onto a 4–12% gradient gel, electrophoresed and transferred to nitrocellulose using the iBlot system (Invitrogen, Carlsbad, CA). Membranes were blocked for one hour at room temperature with Licor Blocking Buffer (Licor, Lincoln, NE) prior to overnight incubation at 4°C with one of the following antibodies: pS6RP, tS6RP, pAKT, tAKT, pERK, tERK, p21, PARP, actin and α-tubulin (Cell Signaling, Beverly, MA). All antibodies were used at a 1∶1000 dilution except for pERK, which was used at 1∶2000. Following primary antibody incubation, blots were washed in TBS-Tween(0.1%), then incubated with the appropriate secondary antibody at 1∶15,000 (Licor, Lincoln, NE) for one hour at room temperature. After three additional washes, blots were developed using the Licor Odyssey (Licor, Lincoln, NE).

[5] = test system: cleaved PARP; experiment: Western blot, cleaved PARP in CRC cell lines; assay type: cell-based
Procedure: as §2

[6] = Human pharmacokinetics of SN38 after irinotecan from the literature; assay type: in vivo; settings: humans, irinotecan doses ranging from 125–350 mg/m^2, from literature data
Procedure: (§3) In vivo SN38 data was evaluated to define the dose of irinotecan to be used since it is the active metabolite of irinotecan and carboxylesterase conversion of irinotecan to SN38 varies between mice and humans. Based on human and mouse pharmacokinetic data gathered from literature data [27]–[30], [35]–[40], we selected a dose of 10 mg/kg of irinotecan to be administered intravenously once weekly (Table 2).

[7] = Mouse pharmacokinetics of SN38 after irinotecan from the literature; assay type: in vivo; settings: mice, irinotecan 10 mg/kg iv, estimated from literature data
Procedure: as §3

[8] = Irinotecan and SN-38 plasma PK model and simulations in mice; settings: PK model parameter, fit to data of previous publications (37-39)
Text: The pharmacokinetic models used for everolimus and irinotecan and SN38 in the above equations can be found in Supplement B. Data used to fit the everolimus pharmacokinetics was obtained in the study presented here. In the above equations, for irinotecan treatments, SN38 concentration was used to determine the effect since it is the active agent. The data used to fit the irinotecan and SN38 pharmacokinetics was obtained from previous publications (37-39).
Irinotecan and SN-38 Plasma PK […]

[9] = Human, cited from earlier work
[10] = cited from earlier work; for AUC0→t: t = 6 h
[11] = SN38, mice; cited from earlier work
[12] = SN38, humans; cited from earlier work
[13] = test system: HT29 tumor xenografts; experiment: Therapeutic study and tumor growth modeling, HT29 tumor xenografts; assay type: in vivo, mice
Procedure: (§4) For tumor bearing studies, cells were harvested and resuspended in a 1∶1 mixture of serum-free RPMI and Matrigel (BD Bioscience). One million cells were injected subcutaneously into each rear flank of mice. Tumor volumes, measured by digital calipers, were calculated by V (mm^3) = length x (width)^2 x 0.5236.
(§5) When HT29 and HCT116 tumors reached an average volume of ∼325 mm^3 animals were randomized into four treatment groups (n = 9–10 mice per group): (i) vehicles, (ii) 5 mg/kg everolimus (RAD) by oral gavage (PO) daily, (iii) 10 mg/kg irinotecan (IRI) once weekly by intravenous (iv) tail vein injection, and (iv) a combination of RAD and IRI. Everolimus, diluted in sterile water, and irinotecan, diluted in sterile 0.9% saline, were administered at 4 mL/kg. Animals were treated for 28 days. Tumor volumes and body weights were measured 2–3 times weekly. On day 28 of treatment 3–6 animals per group were sacrificed, approximately 24 hours following everolimus treatment, and tumors harvested for metabolomic analysis.
(§6) Data from the in vivo study was modeled to assess the therapeutic benefit of adding everolimus to irinotecan. The model used was similar to a previously published model for assessing combination therapy. Some modifications were made and details of the model can be found in Supplement S1 (section SA.3.) and Supplement S2. All modeling was performed on individual animal tumor volume data and modeled with SAAM II version 2.1. […]
(§7) are presented in Tables 1 and 2 in Supplement B. Individual fits of the model to the data can also be found in Supplement B. The average growth terms for each tumor type were then fixed at the average parameter value and used to determine the single agent effects (kx) of each compound by fitting the following equation: […] where cx(t) is the concentration of drug x with respect to time. Individual tumors were modeled and the average value of kx determined (Supplement B Tables 1 & 2) for each single agent treatment. This value was used to fit the following equation to the combination tumor growth data to determine the degree of interaction between the two drugs.
(§8) , the interaction term, was determined for each individual tumor for each tumor type and the data is presented in Table 2 in the main text and individual fits can be found in Supplement B.
(§9) We determined that values greater than 1.3 are synergistic, between 1.3 and 0.7 are additive, between 0.7 and 0 are less than additive, and negative values for are antagonistic. These ranges were selected based on the model fits. The CV% for the model fits ranged from 15 to 50 with an average CV% of approximately 30%. Therefore we assume an average variance of 30% making the additive range from 1.3 to 0.7 (1 + 30% and 1- 30%). […]

[14] = test system: HCT116 tumor xenografts; experiment: Therapeutic study and tumor growth modeling, HCT116 tumor xenografts; assay type: in vivo, mice
Procedure: as §4, §5, §6, §7, §8, §9

[15] = test system: HT29 tumors; experiment: NMR-based metabolomics of HT29 tumors; assay type: in vivo, mice; settings: end of study
Procedure: as §5
For metabolomic analysis, animals were fasted for 4 hours then received 250 mg/kg of [1-^13C] glucose (Cambridge Isotopes, Cambridge, MA) by IV injection 60 minutes prior to tumor harvesting. Snap-frozen tumor specimens underwent two-phase acid extraction procedure (using 8% perchloric acid) previously established and extensively published [19]–[22]. Further details may also be found in Supplement S1 (section SA.2.).

[16] = SN38 after irinotecan 125mg/m^2, 1.5 hr INF, ref 27
[17] = SN38 after irinotecan 125mg/m^2, 1.5 hr INF, ref 29
[18] = SN38 after irinotecan 340mg/m^2, 1.5 hr INF
[19] = SN38 after irinotecan 350mg/m^2, 1 hr INF, Week 4 PK with cetuximab
[20] = SN38 after irinotecan 350mg/m^2, 1 hr INF
[21] = SN38 after irinotecan 5mg/kg IV Bolus, Mouse
[22] = SN38 after irinotecan 10mg/kg IV Bolus, Mouse, ref 39
[23] = SN38 after irinotecan 20mg/kg IV Bolus, Mouse
[24] = SN38 after irinotecan 40mg/kg IV Bolus, Mouse

SMILES: CCc1c2c(nc3ccc(O)cc13)-c1cc3c(c(=O)n1C2)COC(=O)[C@]3(O)CC [SN38]
- %Growth Inhibition ([1]; HT29, RAD (20 nM), SN38 (4 nM) or the combination of the two, Figure 2): 59%
- IC50 ([1]; HT29 cells): 3 nM
- %Growth Inhibition ([2]; HCT116, RAD (20 nM), SN38 (4 nM) or the combination of the two, Figure 2): 23%
- IC50 ([2]; HCT116 cells): > 300 nM
- %Growth Inhibition [3]: 50%
- effect on p21 [4]: increase
- cleaved PARP (MW 89) ([5]; SN38 treated HCT8 cells): A small amount
- cleaved PARP (MW 89) ([5]; SN38 treated HT29 or HCT116 cells): not
- AUCfree of SN38 [6]: 4.4 to 18.6 ng·h/mL
- AUCfree of SN38 [7]: 7.5 to 25.8 ng·h/mL
- k(0,3) ([8]; K(0,3)SN38): 4.67 h⁻¹
- V3 ([8]; SN-38 central compartment): 2.7 L/kg
- k(3,4) [8]: 1.38 h⁻¹
- k(4,3) [8]: 5.22 h⁻¹
- AUC0→t [9, 16]: 229 ± 108 ng·h/mL
- Cmax [9, 16]: 26.3 ± 11.9 ng/mL
- t½ [9, 16]: 10.4 ± 3.1 h
- AUC0→t [9, 17]: 228 ± 149 ng·h/mL
- Cmax [9, 17]: 27 ± 12 ng/mL
- t½ [9, 17]: 28.5 h
- AUC0→t ([9]; SN38 after irinotecan 180mg/m^2, 1.5 hr INF, footnote a: Week 4 PK with cetuximab): 222–245 ^a ng·hr/mL
- AUC0→t [9, 18]: 474 ± 245 ng·h/mL
- Cmax [9, 18]: 56.0 ± 28.2 ng/mL
- t½ [9, 18]: 21.0 ± 4.3 h
- AUC0→t [9, 19]: 609±531 ^a ng·hr/mL
- Cmax [9, 19]: 57±20 ^a ng/mL
- t½ [9, 19]: 15±23 ^a hr
- AUC0→t [9, 20]: 931 ± 948 ng·h/mL
- Cmax [9, 20]: 88 ± 26 ng/mL
- t½ [9, 20]: 23 ± 35 h
- AUC0→∞ [10, 21]: 279 ^c ng·hr/mL
- Cmax [10, 21]: 647 ng/mL
- Cmax ([10]; SN38 after irinotecan 10mg/kg IV Bolus, Mouse (row r13), estimated from graph in reference): 443–673 ^b ng/mL
- AUC0→∞ ([10]; SN38 after irinotecan 10mg/kg IV Bolus, Mouse (row r13)): 533–1029 ^c ng·hr/mL
- Cmax ([10]; SN38 after irinotecan 10mg/kg IV Bolus, Mouse, estimated from graph in reference): 435–600 ^b ng/mL
- t½ ([10]; SN38 after irinotecan 10mg/kg IV Bolus, Mouse, ref 36): 2.2 h
- AUC0→∞ ([10]; SN38 after irinotecan 10mg/kg IV Bolus, Mouse, ref 37): 533–759 ^c ng·hr/mL
- AUC0→∞ [10, 22]: 534 ^c ng·hr/mL
- Cmax [10, 22]: 443 ng/mL
- AUC0→t ([10]; SN38 after irinotecan 10mg/kg IV Bolus, Mouse): 410±60 (t = 6 h) ng·hr/mL
- AUC0→t [10, 23]: 710±240 (t = 6 h) ng·hr/mL
- t½ [10, 23]: 3.0 h
- AUC0→t [10, 24]: 1080±110 (t = 6 h) ng·hr/mL
- t½ [10, 24]: 3.4 h
- plasma protein binding [11]: 96.6–98.6%
- plasma protein binding [12]: 98%

- k(0,1) ([8]; K(0,1)IRI): 0.25 h⁻¹
- k(3,1) ([8]; compartment 1 (irinotecan) to 3 (SN-38)): 1.91 h⁻¹
- V1 ([8]; irinotecan central compartment, Dose = 10 mg/kg): 2.8 L/kg
- k(1,2) [8]: 1.15 h⁻¹
- k(2,1) [8]: 0.87 h⁻¹
SMILES: CCc1c2c(nc3ccc(OC(=O)N4CCC(N5CCCCC5)CC4)cc13)-c1cc3c(c(=O)n1C2)COC(=O)[C@]3(O)CC [Irinotecan]
- k1 (SD), single agent effect ([13]; HT29 (BRAF and PIK3CA mutant), IRI, SN38 concentration used in the model): 0.0092 (0.0023) mL/ng*day-1
- average tumor growth inhibition, TGI ([13]; HT29 xenografts, 5 mg/kg everolimus PO daily, 10 mg/kg irinotecan iv once weekly, or combination, 28 days): 39%
- k1 (SD), single agent effect ([14]; HCT116 (KRAS and PIK3CA mutant), IRI, SN38 concentration used in the model): 0.0149 (0.0086) mL/ng*day-1
- average tumor growth inhibition, TGI ([14]; HCT116 xenografts, 5 mg/kg everolimus PO daily, 10 mg/kg irinotecan iv once weekly, or combination, 28 days): 17%
- effect on tumor lipids [15]: accumulation of lipids
